Like-named read-outs stand apart in the source and are kept apart here.
Experiments:
[1] = Solubilized concentration of compound in eye drop formulation (HPLC); assay type: physicochemical; conditions: eye drop formulation: 20% hydroxypropyl β-cyclodextrin, 0.5% HPMC, 1.6 mM EDTA in PBS
Description: (§1) Eye drops were prepared by adding compounds at a theoretical concentration of 10 mg/mL to a 2 mL microcentrifuge tube before adding a stir bar and the selected formulation that consisted of (w/v) hydroxypropyl β-cyclodextrin (Trappsol) (20%), hydroxyl propyl methylcellulose (0.5%) and EDTA (1.6 mM) in phosphate buffered saline. Tubes containing compound in eye drop formulation were heated to 60-65° C. and stirred at least 4 hours to overnight. The tubes were removed from the heat bath and centrifuged at 10,000 ref for 5 minutes to clear the solution of any residual drug not in solution. The supernatant was removed from the tubes and one 10 μL sample was removed for HPLC analysis of solubilized by HPLC using an ACE C18 column (4.5 mm×150 mm, 5 m), eluted with acetonitrile/methanol/water mixture with H3PO4, pH 3.5 (50:30:20) with a flow rate of 2.5 mL/min. The solubilized concentration of each compound was calculated by interpolation from a standard curve based on reference standards solubilized in methanol when the assay was validated.
In Table 6, the data from distribution studies performed in Lewis rats show the concentration of each compound present in the retina 0.5 hr after the administration of a 10 μL drop of each topical formation is provided. Compounds were paired and individual formulations mixed at a ratio to make a mixture that contained ~2.5 mg/mL of each compound.

[2] = Rat ocular distribution model, retina after topical drop; assay type: in vivo; conditions: Lewis rats, 10 μL topical drop
Description: as §1
Compounds were applied as a single 10 μL drop to rats and the aqueous humor, and the posterior segment of the eye (vitreous body and retina) were collected from each eye at the time point assigned after the eye was irrigated to remove any residual formulation present. Tissues were collected in pre-weighed collection tubes and the tissue weight was determined for each sample. An internal standard (IS) mixture containing a reference compound at a ratio of 1 μL to 4 mg tissue was added to samples, mixed and then diluted×4.25 in acetonitrile:methanol (9:1). Aqueous humour samples were vortex mixed for 10 s. The vitreous body & retina were vortex mixed 2 times each for 10 s, and further mixed for 6 min on a tabletop shaker at 750 rpm followed by final vortex mixing (10 s). All samples were centrifuged to pellet any particulate matter and the supernatant was transferred to LC vials. A 10 μL sample was then applied to the HPLC during LC/MS/MS analysis. A calibration curve for compounds (0.588-176.471 ng/mL) was prepared in rat plasma to estimate concentrations of compounds in each of the matrices analyzed using the area under curve (AUC) normalized to internal standard AUC for determining response. The assumption was made that 1 mg tissue is equivalent to 1 μL plasma. Concentrations measured in each tissue were then normalized to the amount of drug applied to account for differences in solubilized drug in each formulation. The average concentration and the standard deviation was determined based on “n”=number of eyes assessed, rather than the number of animals. […]

[3] = tested on: LTC4 production in MC/9 cells; assay: MC/9 HPLC assay, inhibition of LTC4 production; assay type: cell-based; conditions: Mus musculus; for inhibition at 3 µM: MC9, 3 μM, A23187 stimulated
Procedure, shortened: (§2)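 MC/9 cells (3×10^6 in HBSS) pre-incubated 30 min with compound, then stimulated 20 min at room temperature with 1 μM A23187. After methanol quench and C18 solid-phase extraction, LTB4 and LTC4 quantified by HPLC against reference standards; inhibition relative to control samples.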

[4] = tested on: LTB4 production in MC/9 cells; assay: MC/9 HPLC assay, inhibition of LTB4 production; assay type: cell-based; conditions: Mus musculus
Procedure, shortened: as §2

[5] = tested on: LTB4 production in porcine or human whole blood; assay: Whole blood HPLC assay, inhibition of LTB4 production; assay type: cell-based; conditions: 5 point curve, porcine or human whole blood (not specified)
Procedure, shortened: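 Porcine or human whole blood was pre-incubated 30 min with compound, then stimulated 20 min at room temperature with 20 μM A23187 (porcine blood also received 20 μM arachidonic acid). Plasma LTB4 was extracted on C18 and quantified by HPLC against reference standards. IC50 from a 5-point curve, with inhibition relative to controls.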

[6] = tested on: AA-induced ear edema; assay: Arachidonic acid (AA) induced mouse ear edema model; assay type: in vivo, CD-1 mice; conditions: 4 hrs and 1 hr before AA 2 mg/ear, mice; for % Inhibition AA-Induced ear edema (0.3 mg/ear): topical 0.3 mg/ear; for % Inhibition AA-Induced ear edema (1 mg/ear): topical 1 mg/ear
Description: One group serves as a control and receives 20 μL of vehicle applied to the pinna of each ear (10 μL to the inside and 10 μL to the outside of the pinna). One or more additional groups serve as test groups. The test compound was applied to the pinna of one ear of the mouse in a 20 μL volume (10 μL to the inside and 10 μL to the outside of the pinna). Test compound or control vehicle (acetone/1% DMSO) was applied topically to the right ear 4 and 1 hour before the application of 2 mg/ear AA as a stimulus to both the inner and outer surfaces of CD-1 mice. The left ears received vehicle (acetone/1% DMSO) alone. The animal was lightly anesthetized again using isofluorane to enable application of the stimulus. For the control group, arachidonic acid (2 mg/ear) was applied as the stimulus to the pinna of one ear only, in a total volume of 20 μL of acetone (10 μL applied to the inside and 10 μL to the outside of the pinna). The other ear received 20 μL of acetone. This served to determine the increase in ear weight due to arachidonic acid in the absence of test compounds. For the test groups, arachidonic acid (2 mg/ear) was applied as the stimulus to the pinna of each ear, in a total volume of 20 μL of acetone (10 μL applied to the inside and 10 μL to the outside of the pinna). The animal was allowed to recover after application of the stimulus in each case. After 60 minutes the animal was euthanized and a standard biopsy sample was taken from each ear using a 6 mm skin biopsy punch (Acuderm). Ear edema was determined by the increase in weight of the tissue due to accumulation of fluid as a result of plasma extravasation. The ears were weighed separately using a balance suitable to record 0.1 mg. For the control group, the difference in ear weights was determined by subtracting the weight of the unstimulated ear from the stimulated ear, and this was a measure of the increase in ear weight due to edema. The percentage increase in ear weight was determined by dividing the increase in stimulated ear weight by the unstimulated ear weight and multiplying by 100. For the test groups, the difference in ear weights was determined by subtracting the weight of the untreated ear from the weight of the ear treated with test compound. The percent inhibition of the increase in ear weight for ears treated with the test compound was estimated by first subtracting the mean ear weight of the untreated controls from each tissue to determine the increase in tissue weight due to application of the arachidonic acid. The percent inhibition=1−(test drug stimulated ear (mg)/control stimulated ear (mg))×100. In Table 5, the data from inhibition of AA-induced ear edema in mice by topical application of compounds is provided. Compounds (0.3 or 1 mg/ear) were applied topically to the ear 4 hrs and 1 hr prior to application of arachidonic acid (AA; 2 mg/ear).

[7] = biological target: T1, recombinant human leukotriene A4 hydrolase enzyme (Homo sapiens, UniProt P09960); assay: Amino-peptidase assay, alanine-4-nitroanalide; assay type: biochemical; conditions: negative values = augmented peptidase activity, read-out: % Inhibition aminopeptidase-Alanine-4-nitroanalide activity of LTA4H (3 μM)
T1 construct: purchased Cayman Chemical 10007817
T1 sequence (P09960 1-611): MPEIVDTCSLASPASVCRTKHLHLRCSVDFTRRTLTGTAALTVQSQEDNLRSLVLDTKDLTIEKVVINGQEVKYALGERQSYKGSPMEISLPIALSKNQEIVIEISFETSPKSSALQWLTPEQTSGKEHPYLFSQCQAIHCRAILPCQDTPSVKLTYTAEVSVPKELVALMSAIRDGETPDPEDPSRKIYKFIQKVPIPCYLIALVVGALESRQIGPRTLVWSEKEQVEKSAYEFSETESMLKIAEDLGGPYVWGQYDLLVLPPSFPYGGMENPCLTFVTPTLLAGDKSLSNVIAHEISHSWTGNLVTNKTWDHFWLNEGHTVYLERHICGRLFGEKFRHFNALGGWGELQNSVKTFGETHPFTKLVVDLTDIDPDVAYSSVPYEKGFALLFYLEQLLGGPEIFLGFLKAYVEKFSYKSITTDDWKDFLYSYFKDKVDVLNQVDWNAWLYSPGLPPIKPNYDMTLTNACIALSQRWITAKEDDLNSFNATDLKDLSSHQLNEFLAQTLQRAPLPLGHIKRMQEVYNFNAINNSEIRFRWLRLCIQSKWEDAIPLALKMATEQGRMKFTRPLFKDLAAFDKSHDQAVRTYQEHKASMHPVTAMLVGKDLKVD
Description: A series of compound concentrations were pre-incubated in the absence of light with 0.5 μg of recombinant human leukotriene A4 hydrolase enzyme (Cayman Chemical 10007817) in 50 μL assay buffer (50 mM Tris-HCl, 100 mM KCl). The reaction was stimulated by adding 50 μL 6 mM alanine-4-nitroanilide (Sigma Aldrich A9325) in assay buffer. The amount of amino-peptidase activity was measured by determining the change in absorbance at 405 nm due to 4-nitroanaline production and comparing the rate of change to a reference standard (Sigma Aldrich 185310). Amino-peptidase activity was compared to control samples and the level of inhibition was calculated. Compounds that augment peptidase activity are represented by negative values.

[8] = tested on: endogenous leukotriene production; conditions: estimated; cited from earlier work
[9] = MC9, Table 2 column 4, no concentration in head (1 μM according to b732), read-out: % Inhibition LTB4
[10] = MC9, Table 2 column 3, no concentration in head (1 μM according to b732), read-out: % Inhibition LTC4

Concentration of compound in formulation [1] [µg/mL]	IC50 [5] [nM]	inhibition at 3 µM [7] [%]	Compound	Concentration of compound in retina 0.5 hr after administration per mg compound applied (Avg ± SD) n = 2 [2]	inhibition at 3 µM [3] [%]	inhibition at 1 µM [4, 9] [%]	inhibition at 1 µM [3, 10] [%]	inhibition at 1 µM ([4]; MC9, 1 μM, read-out: % inhibition LTB4 (1 μM)) [%]	inhibition at 1 µM ([3]; MC9, 1 μM, read-out: % inhibition LTC4 (1 μM)) [%]	% Inhibition AA-Induced ear edema (0.3 mg/ear) [6]	% Inhibition AA-Induced ear edema (1 mg/ear) [6]	Inhibition of endogenous leukotriene production [8]
1650	–	–	CCC(C)(O)CCc1ccc(Oc2nc3c(SC)cccc3s2)c(OC)c1 (centres unmarked) [Compound 191, 1-(3-methoxy-4-{[4-(methylsulfanyl)-1,3-benzothiazol-2-yl]oxy}phenyl)pentan-3-methyl-3-ol]	4872 ± 1672 ng/mL per mg compound applied	> 90	–	–	–	–	–	–	–
2530	–	–	CCC(O)CCc1ccc(Oc2nc3c(SC)cccc3s2)c(OC)c1 (centres unmarked) [Compound 193, 1-(3-methoxy-4-{[4-(methylsulfanyl)-1,3-benzothiazol-2-yl]oxy}phenyl)pentan-3-ol]	15690 ± 9863 ng/mL per mg compound applied	70 to 90	> 90	> 90	–	–	–	–	–
–	1000 to 10000	–	COc1cc(CCC(C)(O)C(F)(F)F)ccc1Oc1nc2c(SC)cccc2s1 (centres unmarked) [Compound 119, 1,1,1-trifluoro-4-(3-methoxy-4-{[4-(methylsulfanyl)-1,3-benzothiazol-2-yl]oxy}phenyl)-2-methylbutan-2-ol]	–	> 90	> 90	> 90	–	–	30-50%	50-70%	–
–	1000 to 10000	–	CCC(O)(CCc1ccc(Oc2nc3ccc(F)cc3s2)c(OC)c1)C(F)(F)F (centres unmarked) [Compound 108, 1-{4-[(6-fluoro-1,3-benzothiazol-2-yl)oxy]-3-methoxyphenyl}-3-(trifluoromethyl)pentan-3-ol]	–	50 to 70	> 90	70 to 90	–	–	<10%	30-50%	–

The remaining lines, values behind:

Compound	Concentration of compound in formulation [1] [µg/mL]	IC50 [5] [nM]	inhibition at 3 µM [7] [%]	Concentration of compound in retina 0.5 hr after administration per mg compound applied (Avg ± SD) n = 2 [2]	inhibition at 3 µM [3] [%]	inhibition at 1 µM [4, 9] [%]	inhibition at 1 µM [3, 10] [%]	inhibition at 1 µM ([4]; MC9, 1 μM, read-out: % inhibition LTB4 (1 μM)) [%]	inhibition at 1 µM ([3]; MC9, 1 μM, read-out: % inhibition LTC4 (1 μM)) [%]	% Inhibition AA-Induced ear edema (0.3 mg/ear) [6]	% Inhibition AA-Induced ear edema (1 mg/ear) [6]	Inhibition of endogenous leukotriene production [8]
CCC(O)(CCc1ccc(Oc2nc3ccccc3s2)c(OC)c1)C(F)(F)F (centres unmarked) [Compound 103, 1-[4-(1,3-benzothiazol-2-yloxy)-3-methoxyphenyl]-3-(trifluoromethyl)pentan-3-ol]	–	1000 to 10000	–	–	> 90	50 to 70	50 to 70	50 to 70	50 to 70	30-50%	70-90%	–
CCC(CCc1ccc(Oc2nc3ccccc3s2)cc1)N1CCCC1 (centres unmarked) [Compound 158, 2-{4-[3-(pyrrolidin-1-yl)pentyl]phenoxy}-1,3-benzothiazole]	–	100 to 1000	50 to 75	–	< 10	> 90	10 to 30	–	–	–	10-30%	–
CCC(O)(CCc1ccc(Oc2nc3c(SC)cccc3s2)cc1)C(F)(F)F (centres unmarked) [Compound 195, 1-(4-{[4-(methylsulfanyl)-1,3-benzothiazol-2-yl]oxy}phenyl)-3-(trifluoromethyl)pentan-3-ol]	3640	–	–	3343 ± 2.4 ng/mL per mg compound applied	> 90	–	–	–	–	–	–	–
CC(c1cc2ccccc2s1)N(O)C(N)=O (centres unmarked) [Zileuton]	–	–	–	–	–	–	–	–	–	–	–	26-86%
